Reference: patent publication US11352350B2, “IRAK degraders and uses thereof” (Kymera Therapeutics, Inc., priority 2018, dated 2022)
pIC50: −log10 of the molar value. Read-outs that look alike come from different tables or passages of the source.

What was measured:
IRAK4 = IRAK4 (Homo sapiens (Human), UniProt Q9NWZ3); experiment: IRAK4 MSD degradation in OCI-LY10; type: cell-based; conditions: MSD
In short: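 Remaining IRAK4 quantified by electrochemiluminescent MSD sandwich assay with two anti-IRAK4 antibodies. Compounds were dosed as 8 concentrations in 1:3 steps from a 1 to 10 μM final top on OCI-LY10 cells, incubated 4 to 24 h at 37° C. under 5% CO2. DC50 fitted with a three-parameter logistic curve.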

OCI-LY10 = experiment: CTG Cell Viability Assay - OCI-LY10; type: cell-based, human; conditions: OCI-LY10, 4 days, read-out: CTG Cell Viability Assay - OCI-LY10: Average external-IC50
In short: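 Viability read by CellTiter-Glo luminescence after 4 days at 37° C under 5% CO2 with compound (top 10 μM final, 1:3 steps, 9 doses, DMSO 0.2%). Three-parameter logistic fit gave IC50.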

[1] = OCI-LY10, 4 hrs, read-out: IRAK4 MSD degradation in OCI-LY10 at 4 hrs: Average external-Abs DC50
[2] = OCI-LY10, 24 hrs, read-out: IRAK4 MSD degradation in OCI-LY10 at 24 hrs: Average external-Abs DC50

Sequence of IRAK4 (Q9NWZ3 whole entry): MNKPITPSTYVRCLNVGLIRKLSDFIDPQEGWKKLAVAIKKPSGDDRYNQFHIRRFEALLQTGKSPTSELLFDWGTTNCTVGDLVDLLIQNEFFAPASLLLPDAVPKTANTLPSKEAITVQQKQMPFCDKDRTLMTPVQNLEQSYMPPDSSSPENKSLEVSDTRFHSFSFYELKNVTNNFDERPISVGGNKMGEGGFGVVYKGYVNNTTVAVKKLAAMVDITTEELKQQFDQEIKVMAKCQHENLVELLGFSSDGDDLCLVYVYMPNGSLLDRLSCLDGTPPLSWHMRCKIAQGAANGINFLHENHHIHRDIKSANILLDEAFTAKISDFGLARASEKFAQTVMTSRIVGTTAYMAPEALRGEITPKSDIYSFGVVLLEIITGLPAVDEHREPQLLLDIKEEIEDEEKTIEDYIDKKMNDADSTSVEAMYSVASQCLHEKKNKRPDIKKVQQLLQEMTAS

| Compound | DC50 (IRAK4; [1]) | DC50 (IRAK4; [2]) | pIC50 (OCI-LY10; Homo sapiens, OCI-Ly10, 96 h) | pIC50 (OCI-LY10) |
| --- | --- | --- | --- | --- |
| Cn1c(=O)n(C2CCC(=O)NC2=O)c2ccc(CCCCOCCCCNCC(=O)N3CCN([C@H]4CC[C@H](Nc5ncnc6[nH]cc(C7CCOCC7)c56)CC4)CC3)cc21 (some centres unmarked) [I-23] | 10 to 100 nM | < 10 nM | 7.00 to 7.30 | – |
| O=C1CCC(N2C(=O)c3cccc(NCCCOC4CCN(C[C@H]5CC[C@H](n6cc(NC(=O)c7cnn8ccc(N9C%10COCC9C%10)nc78)c(C(F)F)n6)CC5)CC4)c3C2=O)C(=O)N1 (some centres unmarked) [I-345] | 100 to 1000 nM | 10 to 100 nM | > 7.30 | – |
| O=C1CCC(N2C(=O)c3cccc(NCCCOCCCOCCCN4CCC(n5cc(NC(=O)c6cnn7ccc(N8C[C@H]9C[C@@H]8CO9)nc67)c(C(F)F)n5)CC4)c3C2=O)C(=O)N1 (some centres unmarked) [I-321] | 100 to 1000 nM | – | – | < 6.00 |
| O=C1CCC(N2C(=O)c3cccc(NCCCOC4CCN(C[C@H]5CC[C@H](n6cc(NC(=O)c7cnn8ccc(N[C@@H]9CCCC[C@@H]9O)nc78)c(C(F)F)n6)CC5)CC4)c3C2=O)C(=O)N1 (some centres unmarked) [I-294] | 10 to 100 nM | – | > 7.30 | – |
| CC[C@@H]1[C@H](F)C(=O)N[C@@H]1COc1ncc(C#C[C@H]2CC[C@H](CN3CCO[C@@H](COCCCNc4cccc5c4C(=O)N(C4CCC(=O)NC4=O)C5=O)C3)CC2)c2cc(C(N)=O)c(OC)cc12 (some centres unmarked) [I-342] | 100 to 1000 nM | – | 7.00 to 7.30 | – |
| Cn1c(=O)n(C2CCC(=O)NC2=O)c2cccc(CN3CCC(CCN4CC(n5cc(NC(=O)c6coc(-c7ccnc(NCC8CC8)c7)n6)c(C(F)F)n5)C4)CC3)c21 (centres unmarked) [I-263] | 10 to 100 nM | – | > 7.30 | – |
| CN(C[C@H]1CN(CCCNc2cccc3c2C(=O)N(C2CCC(=O)NC2=O)C3=O)CCO1)C[C@H]1CC[C@H](n2cc(NC(=O)c3cnn4ccc(N5C[C@H]6C[C@@H]5CO6)nc34)c(C(F)F)n2)CC1 (some centres unmarked) [I-349] | 100 to 1000 nM | 10 to 100 nM | > 7.30 | – |
| Cn1c(=O)n(C2CCC(=O)NC2=O)c2ccc(CCCOC3CCN(C[C@H]4CC[C@H](n5cc(NC(=O)c6cnn7ccc(N[C@@H]8CCCC[C@@H]8O)nc67)c(C(F)F)n5)CC4)CC3)cc21 (some centres unmarked) [I-280] | 10 to 100 nM | – | < 6.00 | – |
| CC[C@@H]1[C@H](F)C(=O)N[C@@H]1COc1ccc(C#C[C@H]2CC[C@H](CN3CCC4(CC3)CC(CNc3cccc5c3C(=O)N(C3CCC(=O)NC3=O)C5=O)C4)CC2)c2cc(C(N)=O)c(OC)cc12 (some centres unmarked) [I-372] | > 1000 nM | – | > 7.30 | – |
| O=C1CCC(N2C(=O)c3ccnc(NCCCOC4CCN(Cc5ccc(-n6cc(NC(=O)c7cnn8ccc(N9CCOCC9)nc78)c(C(F)F)n6)cc5)CC4)c3C2=O)C(=O)N1 (centres unmarked) [I-441] | 10 to 100 nM | 10 to 100 nM | < 6.00 | – |
| CN(C(=O)CCCNc1cccc2c1C(=O)N(C1CCC(=O)NC1=O)C2=O)C1CCN(C[C@H]2CC[C@H](n3cc(NC(=O)c4cnn5ccc(N6C[C@H]7C[C@@H]6CO7)nc45)c(C(F)F)n3)CC2)CC1 (some centres unmarked) [I-366] | < 10 nM | – | > 7.30 | – |
| CN(CCC1CCN(Cc2cccc3c2n(C)c(=O)n3C2CCC(=O)NC2=O)CC1)C[C@H]1CC[C@H](n2cc(NC(=O)c3cnn4ccc(N5C[C@H](N)CC(F)(F)C5)nc34)c(C(F)F)n2)CC1 (some centres unmarked) [I-155] | 10 to 100 nM | – | < 6.00 | – |
| O=C1CCC(N2C(=O)c3cccc(NCc4ccc(CN5CCN(C[C@H]6CC[C@H](n7cc(NC(=O)c8cnn9ccc(N%10CCOCC%10)nc89)c(C(F)F)n7)CC6)CC5)cc4)c3C2=O)C(=O)N1 (some centres unmarked) [I-356] | > 1000 nM | 10 to 100 nM | > 7.30 | – |
| Cn1c(=O)n(C2CCC(=O)NC2=O)c2ccc(CCCOC3CCN(C[C@H]4CC[C@H](n5cc(NC(=O)c6cnn7ccc(N8CCNCC8)nc67)c(C(F)F)n5)CC4)CC3)cc21 (some centres unmarked) [I-162] | < 10 nM | – | < 6.00 | – |
| COc1cc(C(=O)NCCCCCCN(C)C(=O)[C@H]2CC[C@H](n3cc(NC(=O)c4coc(-c5ccnc(NCC6CC6)c5)n4)c(C(F)F)n3)CC2)ccc1NC(=O)[C@@H]1N[C@@H](CC(C)(C)C)[C@](C#N)(c2ccc(Cl)cc2F)[C@H]1c1cccc(Cl)c1F [I-143] | > 1000 nM | > 1000 nM | – | < 6.00 |
| O=C1CCC(N2C(=O)c3cccc(NC4CCN(C[C@H]5CC[C@H](n6cc(NC(=O)c7cnn8ccc(N9CCOCC9)nc78)c(C(F)F)n6)CC5)CC4)c3C2=O)C(=O)N1 (some centres unmarked) [I-218] | 100 to 1000 nM | 100 to 1000 nM | < 6.00 | – |
| Cc1nc2cccc(NCCCOC3CCN(C[C@H]4CC[C@H](n5cc(NC(=O)c6cnn7ccc(N8CCOCC8)nc67)c(C(F)F)n5)CC4)CC3)c2c(=O)n1C1CCC(=O)NC1=O (some centres unmarked) [I-211] | > 1000 nM | > 1000 nM | 7.00 to 7.30 | – |
| Cc1ncsc1-c1ccc(CNC(=O)[C@@H]2C[C@@H](O)CN2C(=O)[C@@H](NC(=O)COCCOCCOCC(=O)N2CCN([C@H]3CC[C@H](Nc4ncnc5cc(CC#N)ccc45)CC3)CC2)C(C)(C)C)cc1 [I-50] | > 1000 nM | – | < 6.00 | – |

| Compound | DC50 (IRAK4; [1]) | DC50 (IRAK4; [2]) | pIC50 (OCI-LY10; Homo sapiens, OCI-Ly10, 96 h) | pIC50 (OCI-LY10) |
| --- | --- | --- | --- | --- |
| Cn1c(=O)n(C2CCC(=O)NC2=O)c2cccc(CCCOC3CCN(C[C@H]4CC[C@H](n5cc(NC(=O)c6cnn7ccc(N[C@@H]8CCCC[C@@H]8O)nc67)c(C(F)(F)F)n5)CC4)CC3)c21 (some centres unmarked) [I-153] | 10 to 100 nM | – | < 6.00 | – |
| O=C1CCC(N2C(=O)c3cccc(NCCCOC4CCN(C[C@H]5CC[C@H](n6cc(NC(=O)c7cnn8ccc(N9C[C@H]%10C[C@@H]9CO%10)nc78)c(C(F)F)n6)CC5)CC4)c3C2=O)C(=O)N1 (some centres unmarked) [I-371] | – | 10 to 100 nM | 7.00 to 7.30 | – |
| C[C@H]1CN(c2ccn3ncc(C(=O)Nc4cn([C@H]5CC[C@H](CN6CCC(OCCCc7cccc8c7n(C)c(=O)n8C7CCC(=O)NC7=O)CC6)CC5)nc4C(F)F)c3n2)C[C@H](C)O1 (some centres unmarked) [I-285] | 10 to 100 nM | – | < 6.00 | – |
| CC[C@@H]1[C@H](F)C(=O)N[C@@H]1COc1ncc(C#C[C@H]2CC[C@@H](CN(C)CCCOCCCc3ccc4c(c3)n(C)c(=O)n4C3CCC(=O)NC3=O)CC2)c2cc(C(N)=O)c(OC)cc12 (some centres unmarked) [I-230] | 100 to 1000 nM | 100 to 1000 nM | < 6.00 | – |
| CN1C(=O)CCC(N2C(=O)c3cccc(NCC4CC5(CCN(C[C@H]6CC[C@H](n7cc(NC(=O)c8cnn9ccc(N%10C[C@H]%11C[C@@H]%10CO%11)nc89)c(C(F)F)n7)CC6)CC5)C4)c3C2=O)C1=O (some centres unmarked) [I-323] | 100 to 1000 nM | > 1000 nM | < 6.00 | – |
| COc1cc(C(=O)NCCOCCOCCN(C)C[C@H]2CC[C@H](n3cc(NC(=O)c4coc(-c5ccnc(NCC6CC6)c5)n4)c(C(F)F)n3)CC2)ccc1NC(=O)[C@@H]1N[C@@H](CC(C)(C)C)[C@](C#N)(c2ccc(Cl)cc2F)[C@H]1c1cccc(Cl)c1F [I-145] | > 1000 nM | > 1000 nM | – | < 6.00 |
| CN(CCCc1cccc2c1n(C)c(=O)n2C1CCC(=O)NC1=O)C[C@H]1CC[C@H](n2cc(NC(=O)c3coc(-c4ccnc(NCC5CC5)c4)n3)c(C(F)F)n2)CC1 (some centres unmarked) [I-130] | < 10 nM | – | < 6.00 | – |
| CN(CCCOCCCc1cccc2c1n(C)c(=O)n2[C@H]1CCC(=O)NC1=O)C[C@H]1CC[C@H](n2cc(NC(=O)c3coc(-c4ccnc(NCC5CC5)c4)n3)c(C(F)F)n2)CC1 (single isomer, unassigned) [I-306] | < 10 nM | – | < 6.00 | – |
| Cn1c(=O)n(C2CCC(=O)NC2=O)c2cccc(CCCOC3CCN(C[C@H]4CC[C@H](n5cc(NC(=O)c6cnn7ccc(NCC8CC8)nc67)c(C(F)F)n5)CC4)CC3)c21 (some centres unmarked) [I-156] | 10 to 100 nM | – | < 6.00 | – |
| COc1cc(C(=O)NCCCCCCN(C)C[C@H]2CC[C@H](n3cc(NC(=O)c4coc(-c5ccnc(NCC6CC6)c5)n4)c(C(F)F)n3)CC2)ccc1NC(=O)[C@@H]1N[C@@H](CC(C)(C)C)[C@](C#N)(c2ccc(Cl)cc2F)[C@H]1c1cccc(Cl)c1F [I-140] | > 1000 nM | > 1000 nM | – | < 6.00 |
| Cn1c(=O)n(C2CCC(=O)NC2=O)c2cccc(CCCO[C@H]3CC[C@H](CN4CCC(n5cc(NC(=O)c6cnn7ccc(N8CCOCC8)nc67)c(C(F)F)n5)CC4)CC3)c21 (some centres unmarked) [I-200] | < 10 nM | – | 7.00 to 7.30 | – |
| CN(C[C@H]1CC[C@H](n2cc(NC(=O)c3coc(-c4ccnc(NCC5CC5)c4)n3)c(C(F)F)n2)CC1)C1CCN(Cc2cccc3c2C(=O)N(C2CCC(=O)NC2=O)C3=O)CC1 (some centres unmarked) [I-169] | < 10 nM | – | < 6.00 | – |
| N#CCc1ccc2c(N[C@H]3CC[C@H](N4CCN(C(=O)COCCOCCOCCOCCNc5cccc6c5C(=O)N(C5CCC(=O)NC5=O)C6=O)CC4)CC3)ncnc2c1 (some centres unmarked) [I-52] | > 1000 nM | – | 6.30 to 7.00 | – |
| Cn1c(=O)n(C2CCC(=O)NC2=O)c2cccc(CCCOCC3CCN(C[C@H]4CC[C@H](n5cc(NC(=O)c6coc(-c7ccnc(NCC8CC8)c7)n6)c(C(F)F)n5)CC4)CC3)c21 (some centres unmarked) [I-120] | < 10 nM | – | < 6.00 | – |
| NCCCOCCCNC[C@H]1CC[C@H](n2cc(NC(=O)c3coc(-c4ccnc(NCC5CC5)c4)n3)c(C(F)F)n2)CC1 [I-235] | > 1000 nM | > 1000 nM | < 6.00 | – |
| Cn1c(=O)n(C2CCC(=O)NC2=O)c2ccc(CCCOC3CCN(C[C@H]4CC[C@H](n5cc(NC(=O)c6cnn7ccc(N8CCOCC8)nc67)c(C(F)F)n5)CC4)CC3)cc21 (some centres unmarked) [I-176] | 10 to 100 nM | – | < 6.00 | – |
| O=C1CCC(N2C(=O)c3cccc(NC4CCN(C5CCN(C[C@H]6CC[C@H](n7cc(NC(=O)c8cnn9ccc(N%10CCOCC%10)nc89)c(C(F)F)n7)CC6)CC5)CC4)c3C2=O)C(=O)N1 (some centres unmarked) [I-232] | < 10 nM | – | > 7.30 | – |
| O=C1CCC(N2C(=O)c3cccc(NCCc4ccc(C5CCN(C[C@H]6CC[C@H](n7cc(NC(=O)c8cnn9ccc(N%10C[C@H]%11C[C@@H]%10CO%11)nc89)c(C(F)F)n7)CC6)CC5)cc4)c3C2=O)C(=O)N1 (some centres unmarked) [I-362] | 100 to 1000 nM | 10 to 100 nM | 6.00 to 6.30 | – |
